Values of other authors, collected in US9750250B2, “Conjugated polyelectrolytes and methods of using the same” (STC.UNM, priority 2015, dated 2017).

Settings: deuterated methanol

## CC(=O)c1ccc2ccccc2c1 [2′-acetonaphthone]
  singlet oxygen quantum yield ΦΔ of the standard: 0.79±0.02
